{"source": "patent US20070254907A1", "about": "“COMPOSITIONS AND METHODS FOR CONTROLLING INFESTATION” (HATCHTECH PTY LTD, priority 2003, published 2007)", "key": {"lice eggs": {"tested_on": "lice eggs", "assay": "whole plant or invertebrate", "type": "in vivo", "details": "for inhibition at 10000 µM / inhibition at 2500 µM / inhibition at 5000 µM: read-out: Percent inhibition of egg hatching; for inhibition at 2500 µM: 2.5 mM; for inhibition at 5000 µM: 5 mM"}, "Plutella xylostella eggs": {"tested_on": "Plutella xylostella eggs", "assay": "whole plant or invertebrate", "type": "in vivo", "details": "for Number hatched / Number unhatched: dipped 2-10 s, day 6 post laying", "method": "The ovicidal efficacy of 2-acetyl-1-tetralone was also tested against Plutella eggs."}, "[1]": {"tested_on": "Helicoverpa armigera eggs", "assay": "Egg hatching of Helicoverpa armigera"}, "[2]": {"details": "Pediculus humanus, 24 h, treated 24 hr post egg laying"}, "[3]": {"details": "Pediculus humanus, 48 h, treated 48 hr post egg laying"}, "[4]": {"details": "Pediculus humanus, 72 h, treated 72 hr post egg laying"}, "[5]": {"details": "Pediculus humanus, 96 h, treated 96 hr post egg laying"}, "[6]": {"details": "Pediculus humanus, 120 h, treated 120 hr post egg laying"}, "[7]": {"details": "Pediculus humanus, 144 h, treated 144 hr post egg laying"}}, "note": "“Also recorded” adds a separate entry of the source. Read-outs that look alike come from different tables or passages of the source.", "data": [{"smiles": "c1cnc2c(c1)ccc1cccnc12", "note": "[1,10-phenanthroline, reference compound]", "values": [{"measurement": "inhibition of lice egg hatching following washing of eggs in water", "setting": "lice eggs; 10 mM, then 1 minute wash", "result": "still highly efficacious at inhibiting lice egg hatching"}, {"measurement": "embryo development in treated eggs", "setting": "lice eggs; 10 mM, a proportion of eggs", "result": "had embryos that appeared to develop normally yet failed to hatch"}, {"measurement": "inhibition of egg hatching in lice", "setting": "lice eggs; 10 mM, eggs treated 5 days post laying, 10 min", "result": "significantly inhibited egg hatching"}, {"measurement": "inhibition at 1000 µM", "setting": "lice eggs; Pediculus humanus, 1 mM, eggs treated 5 days post laying, 10 min, read-out: level of inhibition of egg hatching compared to controls", "result": "~30", "unit": "%"}, {"measurement": "inhibition at 10000 µM", "setting": "lice eggs; Pediculus humanus, 10 mM, 10 minutes, not washed, treated 24 hr post laying", "result": 100, "unit": "%"}, {"measurement": "inhibition at 10000 µM", "setting": "lice eggs; Pediculus humanus, 10 mM, 10 minutes, not washed, treated 48 hr post laying", "result": 100, "unit": "%"}, {"measurement": "inhibition at 10000 µM", "setting": "lice eggs; Pediculus humanus, 10 mM, 10 minutes, not washed, treated 72 hr post laying", "result": 100, "unit": "%"}, {"measurement": "inhibition at 10000 µM", "setting": "lice eggs; Pediculus humanus, 10 mM, 10 minutes, not washed, treated 96 hr post laying", "result": 100, "unit": "%"}, {"measurement": "inhibition at 10000 µM", "setting": "lice eggs; Pediculus humanus, 10 mM, 10 minutes, not washed, treated 120 hr post laying", "result": 100, "unit": "%"}, {"measurement": "inhibition at 10000 µM", "setting": "lice eggs; Pediculus humanus, 10 mM, 10 minutes, washed for 1 minute, treated 24 hr post laying", "result": 100, "unit": "%"}, {"measurement": "inhibition at 10000 µM", "setting": "lice eggs; Pediculus humanus, 10 mM, 10 minutes, washed for 1 minute, treated 48 hr post laying", "result": 100, "unit": "%"}, {"measurement": "inhibition at 10000 µM", "setting": "lice eggs; Pediculus humanus, 10 mM, 10 minutes, washed for 1 minute, treated 72 hr post laying", "result": 100, "unit": "%"}, {"measurement": "inhibition at 10000 µM", "setting": "lice eggs; Pediculus humanus, 10 mM, 10 minutes, washed for 1 minute, treated 96 hr post laying", "result": 97, "unit": "%"}, {"measurement": "inhibition at 10000 µM", "setting": "lice eggs; Pediculus humanus, 10 mM, 10 minutes, washed for 1 minute, treated 120 hr post laying", "result": 62, "unit": "%"}, {"measurement": "inhibition at 2500 µM", "setting": "lice eggs; [2]", "result": 100, "unit": "%"}, {"measurement": "inhibition at 5000 µM", "setting": "lice eggs; [2]", "result": 100, "unit": "%"}, {"measurement": "inhibition at 10000 µM", "setting": "lice eggs; Pediculus humanus, 24 h, 10 mM, treated 24 hr post egg laying", "result": 100, "unit": "%"}, {"measurement": "inhibition at 2500 µM", "setting": "lice eggs; [3]", "result": 100, "unit": "%"}, {"measurement": "inhibition at 5000 µM", "setting": "lice eggs; [3]", "result": 100, "unit": "%"}, {"measurement": "inhibition at 10000 µM", "setting": "lice eggs; Pediculus humanus, 48 h, 10 mM, treated 48 hr post egg laying", "result": 100, "unit": "%"}, {"measurement": "inhibition at 2500 µM", "setting": "lice eggs; [4]", "result": 85, "unit": "%"}, {"measurement": "inhibition at 5000 µM", "setting": "lice eggs; [4]", "result": 100, "unit": "%"}, {"measurement": "inhibition at 10000 µM", "setting": "lice eggs; Pediculus humanus, 72 h, 10 mM, treated 72 hr post egg laying", "result": 100, "unit": "%"}, {"measurement": "inhibition at 2500 µM", "setting": "lice eggs; [5]", "result": 85, "unit": "%"}, {"measurement": "inhibition at 5000 µM", "setting": "lice eggs; [5]", "result": 100, "unit": "%"}, {"measurement": "inhibition at 10000 µM", "setting": "lice eggs; Pediculus humanus, 96 h, 10 mM, treated 96 hr post egg laying", "result": 100, "unit": "%"}, {"measurement": "inhibition at 2500 µM", "setting": "lice eggs; [6]", "result": 89, "unit": "%"}, {"measurement": "inhibition at 5000 µM", "setting": "lice eggs; [6]", "result": 93, "unit": "%"}, {"measurement": "inhibition at 10000 µM", "setting": "lice eggs; Pediculus humanus, 120 h, 10 mM, treated 120 hr post egg laying", "result": 100, "unit": "%"}, {"measurement": "inhibition at 2500 µM", "setting": "lice eggs; [7]", "result": 60, "unit": "%"}, {"measurement": "inhibition at 5000 µM", "setting": "lice eggs; [7]", "result": 96, "unit": "%"}, {"measurement": "inhibition at 10000 µM", "setting": "lice eggs; Pediculus humanus, 144 h, 10 mM, treated 144 hr post egg laying", "result": 100, "unit": "%"}, {"measurement": "inhibition of egg hatching", "setting": "lice eggs; added within 24 hours of hatching", "result": "variable inhibition of egg hatching"}, {"measurement": "inhibition of lice egg hatching in time-course experiments", "setting": "lice eggs; varying concentrations (10, 5, 2.5 mM), 24-144 hr post egg laying", "result": "Significant inhibition; also recorded: significantly inhibit egg hatching in lice at all time points examined"}, {"measurement": "effect on egg hatching of Plutella xylostella (words)", "setting": "Plutella xylostella eggs; 10 mM", "result": "significantly inhibit egg hatching"}, {"measurement": "inhibition at 1000 µM", "setting": "Plutella xylostella eggs; Plutella xylostella, Table 9, 1 mM, relative to control (100% MeOH), read-out: % Inhibition", "result": 0, "unit": "%"}, {"measurement": "inhibition at 10000 µM", "setting": "Plutella xylostella eggs; Plutella xylostella, Table 9, 10 mM, relative to control (100% MeOH), read-out: % Inhibition", "result": 100, "unit": "%"}, {"measurement": "Number hatched", "setting": "Plutella xylostella eggs; Table 9, 1 mM", "result": 15}, {"measurement": "Number unhatched", "setting": "Plutella xylostella eggs; Table 9, 1 mM", "result": 16}, {"measurement": "Number hatched", "setting": "Plutella xylostella eggs; Table 9, 10 mM", "result": 0}, {"measurement": "Number unhatched", "setting": "Plutella xylostella eggs; Table 9, 10 mM", "result": 45}, {"measurement": "effect on egg hatching of Helicoverpa armigera (words)", "setting": "[1]; 10 mM", "result": "able to inhibit egg hatching"}, {"measurement": "inhibition at 1000 µM", "setting": "[1]; Helicoverpa armigera", "result": 0, "unit": "%"}, {"measurement": "inhibition at 10000 µM", "setting": "[1]; Helicoverpa armigera", "result": 44, "unit": "%"}, {"measurement": "Number hatched", "setting": "[1]; Table 12, 10 mM", "result": 31}, {"measurement": "Number unhatched", "setting": "[1]; Table 12, 10 mM", "result": 16}]}]}
